Usually fold induction stands for the signal under treatment as a multiple of the control signal. A high value points to a strong induction. By IC50 is commonly meant the concentration that gives 50% inhibition. Higher therefore signals weaker potency.

Type in all cases: cell-based
One test relates to p15 protein. The test can be described thus: Evaluation of p15 induction activity (Western blotting). The conditions noted are these: test substance 0.1 μM, 24 hrs, ACHN cells or HT-29 cells, compared to DMSO, n=2. In short, it runs like this:
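p15 protein quantified by densitometry of anti-p15 Western blots (10 μg protein per lane, mean of n=2). Samples came from HT-29 or ACHN cells given 0.1 μM compound for 24 h after 24 h plating, with DMSO as control.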

The subject of test [1] is colorectal cancer cell line HT-29 cells. The test can be described thus: Growth inhibitory effect against cancer cell lines (3H-thymidine uptake), HT-29. The conditions noted are these: Homo sapiens, HT-29, inhibition of 3H-thymidine uptake; test substance 18 hrs, then 3H-thymidine 6 hrs; triplicate. In short, it runs like this:
(§1)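 IC50 = concentration reducing ^3H-thymidine incorporation to 50% of DMSO control, measured in triplicate. Compound added 24 hrs after plating (1.0×10^4 cells/well); label (0.25 μCi/well) given after 18 hrs of treatment, followed by 6 hrs further culture and scintillation counting of harvested cells.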

The subject of test [2] is Renal cancer cell line ACHN cell. As to the kind of experiment: Growth inhibitory effect against cancer cell lines (3H-thymidine uptake), ACHN. The following applies: Homo sapiens, ACHN. An outline of the steps:
as §1

The test system of the next test is p27 protein. As to the kind of experiment: p27 protein induction test (Western blotting). The conditions noted are these: test substance (0.1 1M), 24 hrs, ACHN cells or HT-29 cells, compared to DMSO, n=2. The procedure:
ACHN cells or HT-29 cells were cultured in a 6 well plate at 2.5×10^5 cells/1.8 mL/well for 24 hrs, a test substance ([…]) dissolved in DMSO was added. After 24 hrs, cells were detached using trypsin-EDTA (ethylene diamine tetraacetic acid) and solubilized with NuPAGE LDS sample buffer (Invitrogen). Using an RC DC protein assay kit (BIO-RAD), the protein concentration of the sample was quantitated, and a sample in an amount corresponding to 10 μg of BSA (bovine serum albumin) was analyzed by Western blotting using an anti-p27 antibody. The density of the band stained with the anti-p27 antibody was measured by a densitometer to quantify the amount of p27 protein. As a control, DMSO was used and the test was performed with n=2 and the average protein amount was determined.
(In western blotting, separated proteins are transferred to a membrane and probed.)

For the compound `Cc1cc(N(C)C)ccc1Nc1cc(=O)n(C)c2c1c(=O)n(C1CC1)c(=O)n2-c1ccccc1` [Example 1-112], the fold induction at 0.1 µM in the test with p15 protein and in the test with p27 protein was at least 1.5 each time. Besides, the half-inhibitory concentration (IC50) was 10 to 100 nM in test [1] and 100 to 1000 nM in test [2].

On to `CN(C)c1ccc(Nc2cc(=O)n(C)c3c2c(=O)n(C2CC2)c(=O)n3-c2ccccc2F)cc1` [Example 1-114], for which the fold induction at 0.1 µM in the test on p15 protein and with p27 protein was at least 1.5 in each case. The 50% inhibitory concentration (IC50) in test [1] and in test [2] was 100 to 1000 nM throughout.

For `Cn1c(=O)cc(Nc2ccc(Br)cc2F)c2c(=O)n(C3CC3)c(=O)n(-c3ccccc3)c21` [Example 1-152], the fold induction at 0.1 µM with p15 protein and in the test on p27 protein was at least 1.5 in each case. Besides, the results for the 50% inhibitory concentration (IC50) in test [1] and in test [2] were 10 to 100 nM and 100 to 1000 nM, respectively.

As to `Cn1c(=O)c2c(Nc3ccc(Br)cc3F)cc(=O)n(C)c2n(-c2ccccc2)c1=O` [Example 1-185], the fold induction at 0.1 µM in the test on p15 protein and in the test on p27 protein was at least 1.5 in each case. Also, the half-inhibitory concentration (IC50) in test [1] lay in the range of 10 to 100 nM; in test [2], 100 to 1000 nM.

As for `Cn1c(=O)cc(Nc2ccc(Br)cc2F)c2c(=O)n(C3CC3)c(=O)n(-c3cccc(N4CCOCC4=O)c3)c21` [Example 1-219], the fold induction at 0.1 µM with p15 protein and with p27 protein was at least 1.5 throughout. Besides, the half-inhibitory concentration (IC50) in test [1] was 10 to 100 nM; in test [2] it was 100 to 1000 nM.

Turning to `Cn1c(=O)cc(Nc2ccc(I)cc2)c2c(=O)n(C3CC3)c(=O)n(-c3ccccc3)c21` [Example 1-221], the fold induction at 0.1 µM in the test with p15 protein and in the test with p27 protein was at least 1.5 throughout. For the same compound, the IC50 in test [1] is below 10 nM; in test [2], 10 to 100 nM.

`C#Cc1ccc(Nc2cc(=O)n(C)c3c2c(=O)n(C2CC2)c(=O)n3-c2ccccc2)cc1` [Example 1-222]: the fold induction at 0.1 µM with p15 protein and with p27 protein was at least 1.5 each time. Also, the IC50 lay in the range of 10 to 100 nM in test [1] and 100 to 1000 nM in test [2].

With `CN(C)S(=O)(=O)c1cccc(-n2c(=O)n(C3CC3)c(=O)c3c(Nc4ccc(Br)cc4F)cc(=O)n(C)c32)c1` [Example 1-224], the fold induction at 0.1 µM with p15 protein and in the test with p27 protein was at least 1.5 in each case. The IC50 in test [1] is below 10 nM; in test [2], 100 to 1000 nM.

With `CN(C)S(=O)(=O)c1ccc(-n2c(=O)n(C3CC3)c(=O)c3c(Nc4ccc(Br)cc4F)cc(=O)n(C)c32)cc1` [Example 1-226], the fold induction at 0.1 µM in the test with p15 protein and with p27 protein was at least 1.5 each time. The IC50 lay in the range of 10 to 100 nM in test [1] and 100 to 1000 nM in test [2].

Regarding `C=Cc1ccc(Nc2cc(=O)n(C)c3c2c(=O)n(C2CC2)c(=O)n3-c2ccccc2)c(F)c1` [Example 1-240], the fold induction at 0.1 µM in the test on p15 protein and in the test on p27 protein was at least 1.5 throughout. The IC50 in test [1] and in test [2] was 10 to 100 nM each time.

In the case of `CCc1ccc(Nc2cc(=O)n(C)c3c2c(=O)n(C2CC2)c(=O)n3-c2ccccc2)c(F)c1` [Example 1-242], the fold induction at 0.1 µM with p15 protein and in the test on p27 protein was at least 1.5 throughout. Also, the IC50 was 10 to 100 nM in test [1] and 100 to 1000 nM in test [2].

Regarding `Cn1c(=O)cc(Nc2ccc(Br)cc2F)c2c(=O)n(C3CC3)c(=O)n(-c3cccc(CCCO)c3)c21` [Example 1-243], the fold induction at 0.1 µM in the test on p15 protein and with p27 protein was at least 1.5 in each case. Further, the IC50 in test [1] lay in the range of 10 to 100 nM; in test [2], 100 to 1000 nM.

As for `CC(=O)Nc1cccc(-n2c(=O)n(C3CC3)c(=O)c3c(Nc4ccc(Br)cc4F)cc(=O)n(C)c32)c1` [Example 1-245], the fold induction at 0.1 µM in the test with p15 protein and in the test with p27 protein was at least 1.5 throughout. Besides, the IC50 was below 10 nM in test [1] and 10 to 100 nM in test [2].

With `Cn1c(=O)cc(Nc2ccc(Br)cc2F)c2c(=O)n(C3CC3)c(=O)n(-c3cccc(N)c3)c21` [Example 1-264], the fold induction at 0.1 µM with p15 protein and in the test on p27 protein was at least 1.5 in each case. Further, the figures for the IC50 in test [1] and in test [2] were 10 to 100 nM and 100 to 1000 nM, respectively.

For the compound `Cn1c(=O)cc(Nc2ccc(C3CC3)cc2F)c2c(=O)n(C3CC3)c(=O)n(-c3ccccc3)c21` [Example 1-265], the fold induction at 0.1 µM in the test on p15 protein and in the test on p27 protein was at least 1.5 each time. Further, the figures for the IC50 in test [1] and in test [2] were 10 to 100 nM and 100 to 1000 nM, respectively.

`COCC(=O)Nc1cccc(-n2c(=O)n(C3CC3)c(=O)c3c(Nc4ccc(Br)cc4F)cc(=O)n(C)c32)c1` [Example 1-266]: the fold induction at 0.1 µM in the test with p15 protein and in the test on p27 protein was at least 1.5 throughout. The 50% inhibitory concentration (IC50) in test [1] is below 10 nM; in test [2], 100 to 1000 nM.

As for `CCc1ccc(Nc2cc(=O)n(C)c3c2c(=O)n(C2CC2)c(=O)n3-c2cccc(NS(=O)(=O)CC)c2)c(F)c1` [Example 1-268], the fold induction at 0.1 µM in the test with p15 protein and in the test with p27 protein was at least 1.5 in each case. Besides, the IC50 in test [1] and in test [2] was 10 to 100 nM each time.

In the case of `CCCS(=O)(=O)Nc1cccc(-n2c(=O)n(C3CC3)c(=O)c3c(Nc4ccc(Br)cc4F)cc(=O)n(C)c32)c1` [Example 1-271], the fold induction at 0.1 µM in the test on p15 protein and in the test on p27 protein was at least 1.5 in each case. For the same compound, the IC50 in test [1] was below 10 nM; in test [2], 10 to 100 nM.

For the compound `CC(C)S(=O)(=O)Nc1cccc(-n2c(=O)n(C3CC3)c(=O)c3c(Nc4ccc(Br)cc4F)cc(=O)n(C)c32)c1` [Example 1-272], the fold induction at 0.1 µM in the test on p15 protein and with p27 protein was at least 1.5 each time. Moreover, the IC50 in test [1] and in test [2] was 10 to 100 nM throughout.

As to `Cn1c(=O)cc(Nc2ccc(Br)cc2F)c2c(=O)n(C3CC3)c(=O)n(-c3cccc(NS(=O)(=O)CCl)c3)c21` [Example 1-282], the fold induction at 0.1 µM in the test on p15 protein and in the test with p27 protein was at least 1.5 in each case. Besides, the IC50 lay within 10 to 100 nM in test [1] and 100 to 1000 nM in test [2].

For the compound `CNc1cccc(-n2c(=O)n(C3CC3)c(=O)c3c(Nc4ccc(Br)cc4F)cc(=O)n(C)c32)c1` [Example 1-283], the fold induction at 0.1 µM in the test on p15 protein and with p27 protein was at least 1.5 throughout. Besides, the IC50 in test [1] fell in the range of 10 to 100 nM; in test [2] it was 100 to 1000 nM.

Take `Cn1c(=O)cc(Nc2ccc(Br)cc2F)c2c(=O)n(C3CC3)c(=O)n(-c3cccc(NS(=O)(=O)c4ccccc4)c3)c21` [Example 1-284]: the fold induction at 0.1 µM in the test on p15 protein and in the test on p27 protein was at least 1.5 in each case. Moreover, the IC50 was 10 to 100 nM in test [1] and 100 to 1000 nM in test [2].

`CSc1ccc(Nc2cc(=O)n(C)c3c2c(=O)n(C2CC2)c(=O)n3-c2ccccc2)c(F)c1` [Example 1-285]: the fold induction at 0.1 µM in the test on p15 protein and with p27 protein was at least 1.5 each time. Moreover, the IC50 in test [1] and in test [2] was 10 to 100 nM each time.

For `CSc1ccc(Nc2cc(=O)n(C)c3c2c(=O)n(C2CC2)c(=O)n3-c2cccc(NS(C)(=O)=O)c2)c(F)c1` [Example 1-286], the fold induction at 0.1 µM with p15 protein and with p27 protein was at least 1.5 throughout. Further, the IC50 in test [1] is below 10 nM; in test [2], 10 to 100 nM.

Consider `CC(C)C(=O)Nc1cccc(-n2c(=O)n(C3CC3)c(=O)c3c(Nc4ccc(Br)cc4F)cc(=O)n(C)c32)c1` [Example 1-287], for which the fold induction at 0.1 µM in the test with p15 protein and in the test with p27 protein was at least 1.5 throughout. Further, the values for the 50% inhibitory concentration (IC50) in test [1] and in test [2] were 10 to 100 nM and 100 to 1000 nM, respectively.

These data come from patent US20180273531A1, “PYRIMIDINE COMPOUND AND MEDICAL USE THEREOF” (Japan Tobacco Inc., priority 2004, published 2018).
